From patent publication US11219212B2, “Herbicidal composition comprising cinmethylin and imazamox” (BASF Agro B.V., priority 2015, dated 2022)

Key:
Assay type in all cases: in vivo
Sorghum halepense [1] = assay: Greenhouse preemergence herbicidal activity; conditions: imazamox solo 4.4 g ai/ha, SORHA, 20 DAT
Experimental: (§1) The test plants have been seeded, separately for each species, in plastic containers in sandy loamy soil containing 5% of organic matter.
(§2) The containers were irrigated gently to promote germination and growth and subsequently covered with transparent plastic hoods until the plants had rooted.
(§3) The plants have been cultivated due to their individual requirements at 10-25° C. and 20-35° C. The plants were irrigated due to their necessity.
(§4) The racemic mixture (±)-2-exo-(2-M ethylbenzyloxy)-1-methyl-4-isopropyl-7-oxabicyclo[2.2.1]heptane was used as herbicide A and formulated as emulsifiable concentrates with an active ingredient concentration of 50 g/l, 100 g/I or 750 g/I respectively.
(§5) Imazamox (herbicide B.1) was used as a water dispersible granule (70% WG).
(§6) In the following experiments, the herbicidal activity for the individual herbicidal compositions (solo and mixture applications) was assessed 20 days after treatment (DAT).
(§7) The evaluation for the damage on undesired weeds caused by the chemical compositions was carried out using a scale from 0 to 100%, compared to the untreated control plants. Here, 0 means no damage and 100 means complete destruction of the plants.
(§8) E=X+Y−(X·Y/100) where X=effect in percent using herbicide A at an application rate a; • Y=effect in percent using herbicide B at application rate b; • E=expected effect (in %) of herbicide A+herbicide B at application rates a+b.

Amaranthus retroflexus = assay: Greenhouse preemergence herbicidal activity; conditions: AMARE
Experimental: as §1, §2, §3, §4, §5, §6, §7, §8

Echinochloa crus-galli = assay: Greenhouse preemergence herbicidal activity; conditions: ECHCG, 20 DAT
Experimental: as §1, §2, §3, §4, §5, §6, §7, §8

Chenopodium album [2] = assay: Greenhouse preemergence herbicidal activity; conditions: imazamox solo 4.4 g ai/ha, CHEAL, 20 DAT
Experimental: as §1, §2, §3, §4, §5, §6, §7, §8

Anthemis arvensis [3] = assay: Greenhouse preemergence herbicidal activity; conditions: ANTAR
Experimental: as §1, §2, §3, §4, §5, §6, §7, §8

Abutilon theophrasti = assay: Greenhouse preemergence herbicidal activity; conditions: ABUTH, 20 DAT
Experimental: as §1, §2, §3, §4, §5, §6, §7, §8

Avena fatua [4] = assay: Greenhouse preemergence herbicidal activity; conditions: AVEFA
Experimental: as §1, §2, §3, §4, §5, §6, §7, §8

Galium aparine = assay: Greenhouse preemergence herbicidal activity; conditions: GALAP, 20 DAT
Experimental: as §1, §2, §3, §4, §5, §6, §7, §8

Geranium dissectum = assay: Greenhouse preemergence herbicidal activity; conditions: imazamox solo 8.8 g ai/ha, GERDI, 20 DAT
Experimental: as §1, §2, §3, §4, §5, §6, §7, §8

Lolium multiflorum = assay: Greenhouse preemergence herbicidal activity; conditions: LOLMU
Experimental: as §1, §2, §3, §4, §5, §6, §7, §8

Stellaria media = assay: Greenhouse preemergence herbicidal activity; conditions: STEME
Experimental: as §1, §2, §3, §4, §5, §6, §7, §8

Setaria viridis [5] = assay: Greenhouse preemergence herbicidal activity; conditions: SETVI
Experimental: as §1, §2, §3, §4, §5, §6, §7, §8

Polygonum convolvulus [6] = assay: Greenhouse preemergence herbicidal activity; conditions: imazamox solo 8.8 g ai/ha, POLCO, 20 DAT
Experimental: as §1, §2, §3, §4, §5, §6, §7, §8

Sorghum halepense [7] = assay: Greenhouse postemergence herbicidal activity; conditions: SORHA, 20 DAT
Experimental: as §1
(§9) For the post emergence treatment, the plants were first grown to the 2 leaf station (GS 12). Here, the herbicidal compositions were suspended or emulsified in water as distribution medium and sprayed using finely distributing nozzles.
as §3, §4, §5, §6, §7, §8

Chenopodium album [8] = assay: Greenhouse postemergence herbicidal activity; conditions: CHEAL
Experimental: as §1, §9, §3, §4, §5, §6, §7, §8

Anthemis arvensis [9] = assay: Greenhouse postemergence herbicidal activity; conditions: imazamox solo 35 g ai/ha, ANTAR, 20 DAT
Experimental: as §1, §9, §3, §4, §5, §6, §7, §8

Avena fatua [10] = assay: Greenhouse postemergence herbicidal activity; conditions: imazamox solo 4.4 g ai/ha, AVEFA, 20 DAT
Experimental: as §1, §9, §3, §4, §5, §6, §7, §8

Setaria viridis [11] = assay: Greenhouse postemergence herbicidal activity; conditions: imazamox solo 4.4 g ai/ha, SETVI
Experimental: as §1, §9, §3, §4, §5, §6, §7, §8

Polygonum convolvulus [12] = assay: Greenhouse postemergence herbicidal activity; conditions: POLCO
Experimental: as §1, §9, §3, §4, §5, §6, §7, §8

[13] = imazamox solo 4.4 g ai/ha, 20 DAT
[14] = imazamox solo 4.4 g ai/ha, 20 DAT (line of 25 + 4.4)
[15] = imazamox solo 8.8 g ai/ha, 20 DAT
[16] = imazamox solo 17.5 g ai/ha, 20 DAT
[17] = imazamox solo 17.5 g ai/ha, 20 DAT (line of 100 + 17.5)
[18] = imazamox solo 35 g ai/ha, 20 DAT
[19] = imazamox solo 35 g ai/ha, 20 DAT (line of 200 + 35)
[20] = imazamox solo 8.8 g ai/ha, 20 DAT (line of 50 + 8.8)

COCc1cnc(C2=NC(C)(C(C)C)C(=O)N2)c(C(=O)O)c1 (racemic) [imazamox, 2-[(RS)-4-isopropyl-4-methyl-5-oxo-2-imidazolin-2-yl]-5-methoxymethylnicotinic acid]
herbicidal activity (Sorghum halepense [1]): 10%
herbicidal activity (Amaranthus retroflexus; [13]): 75%
herbicidal activity (Amaranthus retroflexus; [14]): 75%
herbicidal activity (Amaranthus retroflexus; [15]): 90%
herbicidal activity (Amaranthus retroflexus; [16]): 95%
herbicidal activity (Amaranthus retroflexus; [17]): 95%
herbicidal activity (Amaranthus retroflexus; [18]): 95%
herbicidal activity (Amaranthus retroflexus; [19]): 95%
herbicidal activity (Echinochloa crus-galli; imazamox solo 4.4 g ai/ha): 30%
herbicidal activity (Echinochloa crus-galli; imazamox solo 8.8 g ai/ha): 40%
herbicidal activity (Chenopodium album [2]): 0%
herbicidal activity (Anthemis arvensis [3]; [13]): 0%
herbicidal activity (Anthemis arvensis [3]; [15]): 0%
herbicidal activity (Anthemis arvensis [3]; [16]): 20%
herbicidal activity (Anthemis arvensis [3]; [18]): 65%
herbicidal activity (Anthemis arvensis [3]; [19]): 65%
herbicidal activity (Abutilon theophrasti; imazamox solo 17.5 g ai/ha): 70%
herbicidal activity (Abutilon theophrasti; imazamox solo 35 g ai/ha): 75%
herbicidal activity (Avena fatua [4]; [15]): 20%
herbicidal activity (Avena fatua [4]; [20]): 20%
herbicidal activity (Avena fatua [4]; [16]): 65%
herbicidal activity (Avena fatua [4]; [17]): 65%
herbicidal activity (Galium aparine; imazamox solo 4.4 g ai/ha): 0%
herbicidal activity (Galium aparine; imazamox solo 35 g ai/ha): 75%
herbicidal activity (Geranium dissectum): 0%
herbicidal activity (Lolium multiflorum; [13]): 0%
herbicidal activity (Lolium multiflorum; [14]): 0%
herbicidal activity (Lolium multiflorum; [15]): 70%
herbicidal activity (Stellaria media; [15]): 80%
herbicidal activity (Stellaria media; [20]): 80%
herbicidal activity (Stellaria media; [16]): 95%
herbicidal activity (Setaria viridis [5]; [14]): 20%
herbicidal activity (Setaria viridis [5]; imazamox solo 4.4 g ai/ha, 20 DAT (line of 62.5 + 4.4)): 60%
herbicidal activity (Setaria viridis [5]; [15]): 65%
herbicidal activity (Polygonum convolvulus [6]): 25%
herbicidal activity (Sorghum halepense [7]; imazamox solo 4.4 g ai/ha): 90%
herbicidal activity (Sorghum halepense [7]; imazamox solo 17.5 g ai/ha): 95%
herbicidal activity (Sorghum halepense [7]; imazamox solo 35 g ai/ha): 98%
herbicidal activity (Chenopodium album [8]; [13]): 90%
herbicidal activity (Chenopodium album [8]; imazamox solo 4.4 g ai/ha, 20 DAT (line of 43.8 + 4.4)): 90%
herbicidal activity (Chenopodium album [8]; [15]): 95%
herbicidal activity (Anthemis arvensis [9]): 98%
herbicidal activity (Avena fatua [10]): 70%
herbicidal activity (Setaria viridis [11]; 20 DAT): 95%
herbicidal activity (Setaria viridis [11]; 20 DAT (line of 43.8 + 4.4)): 95%
herbicidal activity (Polygonum convolvulus [12]; [13]): 90%
herbicidal activity (Polygonum convolvulus [12]; [16]): 95%
herbicidal activity (Polygonum convolvulus [12]; imazamox solo 17.5 g ai/ha, 20 DAT (line of 175 + 17.5)): 95%
herbicidal activity (Polygonum convolvulus [12]; [18]): 95%
